Assays:
[1] = tested on: Pan02-Luc hepatic metastasis; test: Pan02-Luc liver metastasis model with bioluminescent imaging; format: in vivo, C57BL/6 mice; conditions: L001 or E7046 75 mg/kg p.o. daily, gemcitabine 25 mg/kg i.p. twice a week; for reduction of Pan02 cell liver metastases (bioluminescence of separated livers) / reduction in median luminescence signal compared with vehicle control group: n = 6; for reduction in median luminescence signal compared with vehicle control group: day 28; for median survival: n = 9, control 34 days
Description: (§1) Male C57/BL6 mice (6–8 weeks) were obtained from the National Rodent Laboratory Animal Resources (NRLAR, Shanghai, China). All mice were housed according to Institutional Animal Care and Use Committee guidelines and under a protocol approved by East China Normal University Ethics Committee with respect to animal care and welfare assurance. The bioluminescent liver metastasis mouse model was established as described previously. In brief, 2 × 10^6 Pan02/luc cells suspended in 50 μL of PBS were injected into mice spleen. […] Tumor metastasis was monitored by using an in vivo imaging system following intraperitoneal injection with D-Luciferin (2 mg per mouse; Promega). Bioluminescence intensity was recorded every seven days by a Xenogen IVIS-200 Optical in vivo imaging system (PerkinElmer; Waltham, MA, USA) for up to 4 weeks. The mouse body weight was measured every other day. Survival curve analysis was performed using GraphPad Prism 7.
Mouse liver tissues were harvested, fixed, paraffin embedded, and sectioned (8 μm). The tissues were permeabilized with 0.25% TritonX-100 at room temperature for 15 min, blocked with 1% FBS in PBS, and followed by incubation in primary antibodies at 4 °C overnight: rabbit anti-YAP (1:50 dilution, ab205270, abcam). The sections were then washed with PBS, incubated with anti-rabbit secondary antibody for 2 h and dyed with DAPI (10 μg/mL in PBS) for 5 min at room temperature. Slides were mounted using DPX Mountant (Electron Microscopy Sciences) and images were obtained by inverted fluorescence microscope (Olympus, Tokyo, Japan).

[2] = tested on: Pan02 cells; test: Transwell migration assay, Pan02; format: cell-based, murine; conditions: 0.1 μM PGE2; 16 h
Description: (§2) The transwell assay was conducted as described previously, using 8 μm pore transwell inserts (Corning, NY, USA). Cells were suspended in serum-free DMEM and seeded into upper chambers at appropriate density. The bottom chamber was filled with DMEM supplemented with 10% fetal bovine serum and indicated concentrations of PGE2. The compounds were added in both upper and bottom chambers. […] Migrated cells were counted and quantified using image J.

[3] = tested on: YAP, CYR61 and CTGF mRNA in Pan02 cells; test: Real-time qPCR of YAP and YAP target genes, Pan02; format: cell-based, murine; conditions: 10 μM PGE2
Description: (§3) Total RNA was extracted from cells using TRIzol reagent. The cDNA was synthesized by RT-PCR kit (Vazyme Biotech, Nanjing, China). The band intensity was determined by the gel image analysis system (Bio-Rad, Hercules, CA, USA). SYBR Green-based qPCR (Yeason, Shanghai, China) was conducted subsequently. Relative mRNA levels of target genes were normalized with β-actin. The sequences of primers are listed in Supplementary Table S1. The raw data are listed in Supplementary Table S2.

[4] = tested on: BxPC-3 cells; test: Wound healing assay, BxPC-3; format: cell-based, human; conditions: various concentrations of PGE2
Description: (§4) The wound healing assay was performed according to a standard protocol as described before. Briefly, Pan02 and BxPC-3 cells were grown as a confluent monolayer in 12-well plates (Corning, Corning, NY, USA) overnight and starved with serum-free medium for 6 h. The monolayer cells were disrupted with a P100 micropipette tip (JET BIOFIL, Guangzhou, China) and rinsed with PBS to remove detached cells. Medium containing different concentrations of compounds was added subsequently. After 24 h, treated cells were stained with 2 μM calcein-AM (Yeasen, Shanghai, China) for 20 min and washed with PBS. Photos were taken of the area in the scraped zone of each dish at 100× magnification by using an inverted fluorescent microscope (OLYMPUS, Tokyo, Japan).

[5] = tested on: BxPC-3 cells; test: Transwell migration assay, BxPC-3; format: cell-based, human; conditions: 0.1 μM PGE2; 16 h
Description: as §2

[6] = tested on: YAP/TEAD reporter in BxPC-3 cells; test: TEAD-driven luciferase reporter assay, BxPC-3; format: cell-based, human; conditions: 16 h
Description: (§5) CHO-K1 cells or pancreatic cancer cell lines were transfected with a cAMP responsive element (CRE) reporter or TEAD reporter using lipofectamine 2000 according to the manufacturer’s manual. […] Then, cells were lysed and luciferase activities were determined using Dual-Luciferase Reporter Assay Kit (Promega, Madison, WI, USA).

[7] = tested on: YAP protein in BxPC-3 cells; test: Western blotting of YAP protein, BxPC-3; format: cell-based, human; conditions: 10 μM PGE2
Description: (§6) Cells were lysed in RIPA lysis buffer with phosphatase and protease inhibitors (Calbiochem, San Diego, CA, USA) and denatured by heating at 100 °C for 10 min. Proteins were separated on 10% bis-tris polyacrylamide gels, transferred to nitrocellulose filter membranes (Millipore, Burlington, NJ, USA), and blocked with 5% BSA (Sangon Biotech, Shanghai, China). The membranes were incubated with the indicated primary antibodies overnight and subsequently probed with indicated secondary antibodies. Images of the blots were taken and analyzed by Odyssey imaging system (Li-COR Biosciences, Lincoln, NE, USA). The primary antibodies were listed as follows: Human-YAP (1:10,000 dilution, CY5381, abways); Mouse-YAP (1:1000 dilution, ab205270, abcam); EP4 (1:500 dilution, 101775, Cayman Chemical); GAPDH (1:10,000 dilution, Ab181602, abcam).

[8] = tested on: YAP, CYR61, CTGF, Vimentin, Snail, E-cadherin mRNA in BxPC-3 cells; test: Real-time qPCR of YAP, YAP target genes and EMT markers, BxPC-3; format: cell-based, human; conditions: 10 μM PGE2
Description: as §3

[9] = tested on: YAP protein in Pan02 cells; test: Western blotting of YAP protein, Pan02; format: cell-based, murine; conditions: 10 μM PGE2
Description: as §6

[10] = tested on: YAP/TEAD reporter in Pan02 cells; test: TEAD-driven luciferase reporter assay, Pan02; format: cell-based, murine; conditions: 16 h
Description: as §5

[11] = tested on: Pan02 cells; test: Wound healing assay, Pan02; format: cell-based, murine; conditions: various concentrations of PGE2
Description: as §4

[12] = Body weight of mice in Pan02-Luc metastasis model; format: in vivo, C57BL/6 mice; conditions: L001 75 mg/kg p.o. daily; gemcitabine 25 mg/kg i.p. twice a week; n = 6
Description: as §1

Row | SMILES | H&E imaging of liver sections [1] | reduction of Pan02 cell liver metastases (bioluminescence of separated livers) [1] [%] | reduction in median luminescence signal compared with vehicle control group [1] [%] | median survival [1] [days] | increase in migrated Pan02 cells [2] [fold] | expression of YAP target genes CYR61 and CTGF over time [3] | cell motility (wound closure) vs vehicle [4] | increase in migrated BxPC-3 cells [5] [fold] | max luminescence fold increase of TEAD-driven luciferase activity [6] [fold] | level of intracellular YAP protein over time [7] | expression of YAP target genes CYR61 and CTGF over time [8] | level of intracellular YAP protein over time [9] | max luminescence fold increase of TEAD-driven luciferase activity [10] [fold] | cell motility (wound closure) vs vehicle [11] | body weight loss [12]
1 | C[C@H](NC(=O)c1c(C(F)F)nn(C)c1Oc1cccc(C(F)(F)F)c1)c1ccc(C(=O)O)cc1 [E7046] | remarkably reduced metastatic clusters | 76.42 | 69.13 | 35 | – | – | – | – | – | – | – | – | – | – | –
2 | CCCCC[C@H](O)/C=C/[C@H]1[C@H](O)CC(=O)[C@@H]1C/C=C\CCCC(=O)O [PGE2, Prostaglandin E2, reference compound] | – | – | – | – | 1.2 | elevated | significantly promoted the motility | 2.5 | 1.56 | significantly increased | elevated | significantly increased | 1.87 | significantly promoted the motility | –
3 | Nc1ccn([C@@H]2O[C@H](CO)[C@@H](O)C2(F)F)c(=O)n1 [gemcitabine] | remarkably reduced metastatic clusters | 93.2 | 91.79 | 46 | – | – | – | – | – | – | – | – | – | – | barely found
